According to patent US20040022733A1, “Conjugated lysine copolymers” (priority 2002, published 2004):

System: rat mammary adenocarcinoma cells (ATCC 13762, Mat B cells)
Experiment: MR imaging on a rat tumor model (tumor enhancement)
Assay type: in vivo
Description: Imaging was done on a rat tumor model. Specifically, rat mammary adenocarcinoma cells (ATCC 13762, Mat B cells) were implanted in Fisher 344 female rats ([…] in 0.5 ml phosphate buffered saline). After 7-9 days, tumors were about 10 mm in diameter and the imaging was done at that point. Imaging was performed using a GE CSI scanner at 2T with a 33 cm bore. A birdcage quadrature coil was used for transmission and receiving. T1 weighted images were obtained (TR 250 ms, TE 18 MS, NEX 16). Rats were imaged prior to injection of contrast agent. […] The rats were then imaged immediately after injection and then at 24 hours.

O=C([O-])CN(CCN(CC(=O)[O-])CC(=O)O)CCN(CC(=O)[O-])CC(=O)O.[Gd+3] [Gd-DTPA]
tumor enhancement (rat tumor model, standard dose of 0.1 mmol Gd/kG): 70% | wash out of tumors (rat, in vivo): rapidly wash out of tumors
